Source: ChEMBL document CHEMBL1667770, “Stereoselective first total synthesis, confirmation of the absolute configuration and bioevaluation of botryolide-E” (2011)
≈ marks a conversion by molar mass, not a printed value.

Assays:
Type in all cases: functional
Staphylococcus aureus = test: Antimicrobial activity against Staphylococcus aureus MTCC 96 after 24 hrs by broth dilution method; conditions: MTCC 96, 24 h
Bacillus subtilis = test: Antimicrobial activity against Bacillus subtilis MTCC 441 after 24 hrs by broth dilution method; conditions: MTCC 441, 24 h
[1] = tested on: Staphylococcus epidermidis; test: Antimicrobial activity against Staphylococcus epidermidis MTCC 437 after 24 hrs by broth dilution method; conditions: MTCC 437, 24 h
Escherichia coli = test: Antimicrobial activity against Escherichia coli MTCC 443 after 24 hrs by broth dilution method; conditions: MTCC 443, 24 h
Pseudomonas aeruginosa = test: Antimicrobial activity against Pseudomonas aeruginosa MTCC 741 after 24 hrs by broth dilution method; conditions: MTCC 741, 24 h
Klebsiella pneumoniae = test: Antimicrobial activity against Klebsiella pneumoniae MTCC 39 after 24 hrs by broth dilution method; conditions: MTCC 39, 24 h
Rhizopus arrhizus [2] = test: Antimicrobial activity against Rhizopus oryzae MTCC 262 at 100 ug/ml after 24 to 96 hrs by agar cup method; conditions: read-out: IZ
Aspergillus niger [3] = test: Antimicrobial activity against Aspergillus niger MTCC 1344 at 100 ug/ml after 24 to 96 hrs by agar cup method; conditions: read-out: IZ
Candida albicans [4] = test: Antimicrobial activity against Candida albicans MTCC 227 at 100 ug/ml after 24 to 96 hrs by agar cup method; conditions: read-out: IZ
Saccharomyces cerevisiae [5] = test: Antimicrobial activity against Saccharomyces cerevisiae MTCC 171 at 100 ug/ml after 24 to 96 hrs by agar cup method; conditions: read-out: IZ
Rhizopus arrhizus [6] = test: Antimicrobial activity against Rhizopus oryzae MTCC 262 at 30 ug/ml after 24 to 96 hrs by agar cup method; conditions: read-out: IZ
Aspergillus niger [7] = test: Antimicrobial activity against Aspergillus niger MTCC 1344 at 30 ug/ml after 24 to 96 hrs by agar cup method; conditions: read-out: IZ
Candida albicans [8] = test: Antimicrobial activity against Candida albicans MTCC 227 at 30 ug/ml after 24 to 96 hrs by agar cup method; conditions: read-out: IZ
Saccharomyces cerevisiae [9] = test: Antimicrobial activity against Saccharomyces cerevisiae MTCC 171 at 30 ug/ml after 24 to 96 hrs by agar cup method; conditions: read-out: IZ

| MIC (Staphylococcus aureus) [µg/mL] | MIC (Bacillus subtilis) [µg/mL] | MIC [1] [µg/mL] | MIC (Escherichia coli) [µg/mL] | MIC (Pseudomonas aeruginosa) [µg/mL] | MIC (Klebsiella pneumoniae) [µg/mL] | SMILES | zone of inhibition at 100 µg/mL (Rhizopus arrhizus [2]) [mm] | zone of inhibition at 100 µg/mL (Aspergillus niger [3]) [mm] | zone of inhibition at 100 µg/mL (Candida albicans [4]) [mm] | zone of inhibition at 100 µg/mL (Saccharomyces cerevisiae [5]) [mm] | zone of inhibition at 30 µg/mL (Rhizopus arrhizus [6]) [mm] | zone of inhibition at 30 µg/mL (Aspergillus niger [7]) [mm] | zone of inhibition at 30 µg/mL (Candida albicans [8]) [mm] | zone of inhibition at 30 µg/mL (Saccharomyces cerevisiae [9]) [mm] |
| --- | --- | --- | --- | --- | --- | --- | --- | --- | --- | --- | --- | --- | --- | --- |
| 1.56 (≈ 4.67 µM) | 1.56 (≈ 4.67 µM) | 1.56 (≈ 4.67 µM) |  |  |  | CC1(C)S[C@@H]2[C@H](NC(=O)Cc3ccccc3)C(=O)N2[C@H]1C(=O)O [PENICILLIN G] |  |  |  |  |  |  |  |  |
| 50 (≈ 210 µM) | 100 (≈ 420 µM) | 50 (≈ 210 µM) | 25 (≈ 105 µM) | 100 (≈ 420 µM) | 50 (≈ 210 µM) | O=C1CN(/N=C/c2ccc([N+](=O)[O-])o2)C(=O)N1 [NITROFURANTOIN] |  |  |  |  |  |  |  |  |
| 6.25 (≈ 29.2 µM) | 25 (≈ 117 µM) | 50 (≈ 233 µM) | 12.5 (≈ 58.4 µM) | 50 (≈ 233 µM) | 50 (≈ 233 µM) | CC(=O)O[C@H](C)C[C@H](O)[C@@H]1C=CC(=O)O1 [BOTRYOLIDE-E] | 14 | 10 | 12 | 8 |  |  |  |  |
|  |  |  | 1.56 (≈ 2.69 µM) | 1.56 (≈ 2.69 µM) | 1.56 (≈ 2.69 µM) | CN[C@@H]1[C@H](O[C@H]2[C@H](O[C@H]3[C@H](O)[C@@H](O)[C@H](N=C(N)N)[C@@H](O)[C@@H]3N=C(N)N)O[C@@H](C)[C@]2(O)C=O)O[C@@H](CO)[C@H](O)[C@H]1O [STREPTOMYCIN] |  |  |  |  |  |  |  |  |
|  |  |  |  |  |  | Clc1ccccc1C(c1ccccc1)(c1ccccc1)n1ccnc1 [CLOTRIMAZOLE] |  |  |  |  | 21 | 18 | 22 | 23 |
